# Data from paper PMC10468942, “A Fluorescent Probe as a Lead Compound for a Selective α-Synuclein PET Tracer: Development of a Library of 2-Styrylbenzothiazoles and Biological Evaluation of [^18F]PFSB and [^18F]MFSB” (ACS Omega, 2023).
# Several values for one entry are separate records, joined by “and”; a condition that tells them apart may be missing. Equal entries are not always repeated.
# Columns and labels:
# αSYN fibrils [1] = target: T1, αSYN fibrils (Homo sapiens, UniProt P37840); assay: [^3H]MODAG-001 competition binding assay on αSYN fibrils; details: for Ki: n = 2, single determinations
# T1 construct: cloning of the DNA construct encoding full-length αSYN into the pET-22b vector; made in house; host or cells: Escherichia coli BL21
# Protocol: Following the cloning of the DNA construct encoding full-length αSYN into the pET-22b vector and its transformation into BL21 cells, the expression of human αSYN from a prokaryotic host was induced overnight in Escherichia coli at 20 °C with 0.5 mM IPTG. The cells were harvested by centrifugation, resuspended in 20 mM Tris-HCl pH 7.6, 25 mM NaCl and 1× complete protease inhibitor (Roche, Basel, Switzerland), and lysed by sonication. Additionally, they were boiled for 15 min and centrifuged at 12 000g for 30 min. Anion exchange chromatography (HiTrap Q, GE Healthcare, Chicago, Illinois) was used to trap the produced αSYN, which was eluted with NaCl 0.1 M over 20 column volumes. Fractions containing αSYN were concentrated and further purified through a Superdex 75 SEC column equilibrated with PBS. Additional purification was conducted via a high-capacity endotoxin removal spin column (Pierce, Waltham, Massachusetts), affording an endotoxin level below 1.0 EU/mg. The monomeric state and monodispersity of pure αSYN were confirmed by dynamic light scattering and fibrillation was performed according to the protocol from Makky et al.[26] A 4 mg/mL solution of αSYN in 20 mM K3PO4 pH 9.1 was placed in an orbital shaker at 37 °C, 1000 rpm for 5 days to prepare P91s. The assemblies were either sonicated with cycles of 20 s on and 10 s off at 50% amplitude (Q800R3, Qsonica) for a total of 10 min or directly aliquoted in volumes of 10 μL each stored at −80 °C until use. The method for Aβ1-42 fibrils generation was adapted from Bagchi et al. and described in Kuebler et al.[17],[27] […]
# Plates were incubated on a shaker (MaxQ 6000, Thermo Fisher Scientific, Inc., Marietta, OH) at 50 rpm for 2 h at 37 °C, covered by removable sealing tapes (PerkinElmer, Waltham, MA). Vacuum filtration and read-out were performed as previously reported.[17] […]
# Aβ1-42 fibrils = target: T2, Aβ1-42 fibrils (Homo sapiens, UniProt P05067); assay: [^3H]PiB competition binding assay on Aβ fibrils; details: for competition with [^3H]PiB / binding to Aβ fibrils (in words): Aβ1–42 fibrils
# T2 construct: Synthetic lyophilized human Aβ1-42 peptide; purchased EMC Microcollections, Tuebingen, Germany; host or cells: synthetic peptide
# T2 sequence (P05067 672-713 limits assumed): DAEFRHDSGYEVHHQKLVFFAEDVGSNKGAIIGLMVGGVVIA
# Protocol: Following the cloning of the DNA construct encoding full-length αSYN into the pET-22b vector and its transformation into BL21 cells, the expression of human αSYN from a prokaryotic host was induced overnight in Escherichia coli at 20 °C with 0.5 mM IPTG. The cells were harvested by centrifugation, resuspended in 20 mM Tris-HCl pH 7.6, 25 mM NaCl and 1× complete protease inhibitor (Roche, Basel, Switzerland), and lysed by sonication. […] Anion exchange chromatography (HiTrap Q, GE Healthcare, Chicago, Illinois) was used to trap the produced αSYN, which was eluted with NaCl 0.1 M over 20 column volumes. Fractions containing αSYN were concentrated and further purified through a Superdex 75 SEC column equilibrated with PBS. […] A 4 mg/mL solution of αSYN in 20 mM K3PO4 pH 9.1 was placed in an orbital shaker at 37 °C, 1000 rpm for 5 days to prepare P91s. The assemblies were either sonicated with cycles of 20 s on and 10 s off at 50% amplitude (Q800R3, Qsonica) for a total of 10 min or directly aliquoted in volumes of 10 μL each stored at −80 °C until use. The method for Aβ1-42 fibrils generation was adapted from Bagchi et al. and described in Kuebler et al.[17],[27] […] Aggregation was induced by incubation in an Eppendorf Thermomixer at 37 °C with shaking at 800 rpm for 72 h. The resulting fibrils were sonicated for 3 min in a water bath (Elmasonic S 60 H, Elma Schmidbauer GmbH, Singen, Germany). The final products were aliquoted, frozen on dry ice, and stored at −80 °C until use.
# (§1) Concentrations of αSYN and Aβ1-42 fibrils were as described above.
# (§2) Plates were incubated on a shaker (MaxQ 6000, Thermo Fisher Scientific, Inc., Marietta, OH) at 50 rpm for 2 h at 37 °C, covered by removable sealing tapes (PerkinElmer, Waltham, MA). Vacuum filtration and read-out were performed as previously reported.[17] […] Data points were fitted using nonlinear regression analysis in GraphPad Prism (GraphPad Software, Inc., Version 8.4.0, La Jolla).
# αSYN fibrils [2] = target: T1, αSYN fibrils; assay: [^3H]PiB competition binding assay on αSYN fibrils
# Protocol: Following the cloning of the DNA construct encoding full-length αSYN into the pET-22b vector and its transformation into BL21 cells, the expression of human αSYN from a prokaryotic host was induced overnight in Escherichia coli at 20 °C with 0.5 mM IPTG. The cells were harvested by centrifugation, resuspended in 20 mM Tris-HCl pH 7.6, 25 mM NaCl and 1× complete protease inhibitor (Roche, Basel, Switzerland), and lysed by sonication. […] Anion exchange chromatography (HiTrap Q, GE Healthcare, Chicago, Illinois) was used to trap the produced αSYN, which was eluted with NaCl 0.1 M over 20 column volumes. Fractions containing αSYN were concentrated and further purified through a Superdex 75 SEC column equilibrated with PBS. […] A 4 mg/mL solution of αSYN in 20 mM K3PO4 pH 9.1 was placed in an orbital shaker at 37 °C, 1000 rpm for 5 days to prepare P91s. The assemblies were either sonicated with cycles of 20 s on and 10 s off at 50% amplitude (Q800R3, Qsonica) for a total of 10 min or directly aliquoted in volumes of 10 μL each stored at −80 °C until use. […] The final products were aliquoted, frozen on dry ice, and stored at −80 °C until use.
# as §1, §2
# [3] = test system: αSYN pathology in human brain slices (MSA, PD, AD, control); assay: In vitro autoradiography on human brain slices; type: binding; details: 10 nM tracer
# Protocol: Post-mortem human brain slices (10 μm thickness) were obtained from the subject cases and were analyzed by the Neurobiobank München (NBM, Munich, Germany), where tissues were collected on the basis of written informed consent according to the guidelines of the ethics committee of the Ludwig Maximilians University of Munich, Germany (# 345-13). The use of brain tissue samples in this study was approved by the ethics committee of the Faculty of Medicine at the University of Tuebingen (Ethics approval number: 813/2018BO2). Table S4 (Supporting Information) summarizes the information of the subjects from which samples were obtained and used in the experiment.
# For autoradiography, frozen brain slices were thawed for 1 h before preincubation in bovine serum albumin (BSA) buffer for 25 min at room temperature. To determine total binding (TB), brain slices were incubated with the tracer (10 nM [^18F]PFSB, 10 nM [^18F]MFSB). Incubation of consecutive slices with the corresponding nonradioactive compounds (10 μM PFSB, 10 μM MFSB) was performed to determine nonspecific binding (NSB). The nonradioactive compounds were prepared by dissolving in DMSO to 10 mM, which yielded a DMSO concentration of ≤0.1% in the final solution. Incubation was carried out for 1 hour at room temperature with subsequent washing in cold BSA buffer (3 × 10 min) followed by three dippings in cold deionized water. After drying under an IR lamp, brain slices were exposed to a storage phosphor screen (Molecular Dynamics, Caesarea, Israel) for 18 h, which was then scanned in a phosphor imager (STORM 840, Molecular Dynamics, Sunnyvale, CA).
# Quantitative data analysis was performed by drawing four regions of interest (ROIs) in relevant areas of the slice and one ROI next to it for background subtraction (Figures S7 and S8; ImageJ 1.8.0_172, National Institute of Health, Bethesda, MD).[28] Specific binding (SB) is obtained by subtracting NSB from TB. The SB disease/SB control ratio was calculated by dividing by the SB in diseased tissues with the respective SB in control tissues.
# [4] = Ki, αSYN [^3H]PiB competition, mean Ki ± SEM, n = 3, or single determinations
# [5] = nonmethylated compounds, Table 1, two values in a cell = single determinations, a: mean Ki ± SEM of three data points, b: single data point, read-out: Ki
Compound,Ki (αSYN fibrils [1]),Ki (αSYN fibrils [2]; [4]),competition with [^3H]PiB / binding to Aβ fibrils (in words) (Aβ1-42 fibrils),Ki (αSYN fibrils [2]; [5]),also measured
"Fc1ccc2nc(C=Cc3ccc(N4CCOCC4)cc3)sc2c1 [compound 45, 4-(4-(2-(6-Fluorobenzo[d]thiazol-2-yl)vinyl)phenyl)morpholine]",0.0203 µM and 0.0412 µM,0.0103 ± 0.0047 µM,,,"fold lower Ki than PFSB (αSYN fibrils [1]; [^3H]MODAG-001 competition): 4.6 fold; αSYN/Aβ selectivity (in words) (Aβ1-42 fibrils; [^3H]PiB competition on αSYN and Aβ fibrils): remained unchanged; factor of affinity improvement compared to PFSB (αSYN fibrils [2]; [^3H]PiB competition, Ki-MFSB vs Ki-PFSB): 2.5"
[18F]c1ccc2nc(/C=C/c3ccc(N4CCCCC4)cc3)sc2c1 [[^18F]PFSB],,,,,"AD/frontal cortex SB ratio ([3]; AD sample vs frontal cortex control): 1.06; specific binding signal intensity ratio MSA / control of the same brain area ([3]; MSA patient slices vs control, n = 1): 3.7 and 4.2"
"Fc1ccc2nc(C=Cc3ccc(N4CCCCC4)cc3)sc2c1 [9a, 6-Fluoro-2-(4-(piperidin-1-yl)styryl)benzo[d]thiazole]",0.125 µM and 0.159 µM,,None of the tested compounds appreciably competed against [^3H]PiB,0.0254 ± 0.0023 µM,
"C(=Cc1nc2ccccc2s1)c1ccc(N2CCOCC2)cc1 [15a, 4-(4-(2-(Benzo[d]thiazol-2-yl)vinyl)phenyl)morpholine]",,,None of the tested compounds appreciably competed against [^3H]PiB,0.092 ± 0.0303 µM,
"Fc1ccc2nc(C=CC=Cc3ccc(N4CCCCC4)cc3)sc2c1 [compound 43, 6-Fluoro-2-(4-(4-(piperidin-1-yl)phenyl)buta-1,3-dien-1-yl)benzo[d]thiazole]",,0.213 ± 0.121 µM,remained low,,fold reduction of affinity compared to 14a (αSYN fibrils [2]; [^3H]PiB competition): ~3 fold
"C(C=Cc1nc2ccccc2s1)=Cc1ccc(N2CCCCC2)cc1 [14a, 2-(4-(4-(Piperidin-1-yl)phenyl)buta-1,3-dien-1-yl)benzo[d]thiazole]",,,None of the tested compounds appreciably competed against [^3H]PiB,0.0819 ± 0.0156 µM,
